ChEMBL document CHEMBL2062395, “Avicholic Acid: A Lead Compound from Birds on the Route to Potent TGR5 Modulators” (ACS Med Chem Lett, 2012)

Tests used:
[1] = molecular target: T1, G-protein coupled bile acid receptor 1 (Homo sapiens, UniProt Q8TDU6); test: Agonist activity at TGR5 expressed in NCI-H716 cells assessed as cAMP level after 60 mins by FRET analysis; format: functional, cell-based
T1 sequence (Q8TDU6 whole entry): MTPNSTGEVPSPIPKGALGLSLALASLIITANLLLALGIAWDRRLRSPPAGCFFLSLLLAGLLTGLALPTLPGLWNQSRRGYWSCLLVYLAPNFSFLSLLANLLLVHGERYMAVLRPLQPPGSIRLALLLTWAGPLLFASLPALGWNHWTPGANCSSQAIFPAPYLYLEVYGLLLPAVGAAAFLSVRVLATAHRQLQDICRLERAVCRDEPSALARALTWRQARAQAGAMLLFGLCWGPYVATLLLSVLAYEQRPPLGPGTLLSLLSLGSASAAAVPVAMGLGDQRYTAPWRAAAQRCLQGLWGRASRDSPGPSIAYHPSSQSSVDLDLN

Bile acid receptor = molecular target: T2, Bile acid receptor (Homo sapiens, UniProt Q96RI1); test: Agonist activity at GST-tagged FXR-LBD using biotinylated-SRC-1 peptide as substrate preincubated with compound for 30 mins measured after 4 hrs; format: functional
T2 sequence (Q96RI1 whole entry): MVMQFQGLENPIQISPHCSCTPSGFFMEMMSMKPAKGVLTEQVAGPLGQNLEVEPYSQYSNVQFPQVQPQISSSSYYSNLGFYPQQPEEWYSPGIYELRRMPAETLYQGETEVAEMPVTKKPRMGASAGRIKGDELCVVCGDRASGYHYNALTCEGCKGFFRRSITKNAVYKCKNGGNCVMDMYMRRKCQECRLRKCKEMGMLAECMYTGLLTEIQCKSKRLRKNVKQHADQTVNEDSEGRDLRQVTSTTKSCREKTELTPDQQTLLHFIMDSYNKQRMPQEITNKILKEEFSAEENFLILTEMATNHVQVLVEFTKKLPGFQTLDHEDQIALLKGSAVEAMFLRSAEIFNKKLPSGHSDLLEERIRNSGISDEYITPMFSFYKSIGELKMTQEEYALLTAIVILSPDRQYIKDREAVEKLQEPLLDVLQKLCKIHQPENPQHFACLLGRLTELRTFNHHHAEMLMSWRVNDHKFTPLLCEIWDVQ

[2] = Critical micelle concentration of the compound in 0.15 M NaCl water solution; format: physicochemical; settings: buffer
[3] = 1-Octanol/water partition coefficient, log P of the compound by conventional shake-flask method; format: physicochemical
[4] = Aqueous solubility of the compound in 0.1 M HCl water at […] by HPLC-ES-MS/MS; format: physicochemical
Albumin = Albumin (Homo sapiens, UniProt P02768); test: Binding affinity to albumin by equilibrium dialysis; format: ADME; set-up: concentration or dose not given beside the values; settings: isolated protein
Sequence of Albumin (P02768 whole entry): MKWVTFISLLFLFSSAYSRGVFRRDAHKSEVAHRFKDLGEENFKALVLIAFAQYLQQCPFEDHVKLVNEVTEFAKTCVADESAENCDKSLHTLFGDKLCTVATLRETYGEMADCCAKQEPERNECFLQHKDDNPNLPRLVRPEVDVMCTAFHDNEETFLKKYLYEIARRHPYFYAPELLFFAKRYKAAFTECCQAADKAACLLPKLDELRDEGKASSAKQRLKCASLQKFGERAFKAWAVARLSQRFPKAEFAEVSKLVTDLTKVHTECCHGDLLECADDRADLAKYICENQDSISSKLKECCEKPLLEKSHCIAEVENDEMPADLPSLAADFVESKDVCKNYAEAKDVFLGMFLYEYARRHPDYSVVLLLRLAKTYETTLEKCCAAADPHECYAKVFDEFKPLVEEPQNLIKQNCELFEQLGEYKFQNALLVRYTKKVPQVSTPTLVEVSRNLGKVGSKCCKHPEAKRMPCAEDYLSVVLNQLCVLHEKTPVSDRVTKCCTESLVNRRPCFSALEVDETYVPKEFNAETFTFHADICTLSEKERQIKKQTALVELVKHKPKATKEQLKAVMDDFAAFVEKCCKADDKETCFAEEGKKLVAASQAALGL

Liver = test: Drug metabolism in mouse liver assessed as taurine conjugate formation; format: ADME, tissue-based
[5] = 1-octanol/water, read-out: logP

## C[C@H](CCC(=O)O)[C@H]1[C@@H](O)C[C@H]2[C@@H]3[C@H](O)C[C@@H]4C[C@H](O)CC[C@]4(C)[C@H]3CC[C@]12C
[1]
  EC50: 25 µM
Bile acid receptor
  EC50: 55 µM

## CC[C@H]1[C@@H](O)[C@@H]2[C@H](CC[C@]3(C)[C@@H]([C@H](C)CCC(=O)O)[C@H](O)C[C@@H]23)[C@@]2(C)CC[C@@H](O)C[C@@H]12
[1]
  EC50: 87 µM
Bile acid receptor
  EC50: 22 µM

## CC[C@H]1[C@@H](O)[C@@H]2[C@H](CC[C@]3(C)[C@@H]([C@H](C)CCC(=O)[O-])[C@@H](O)C[C@@H]23)[C@@]2(C)CC[C@@H](O)C[C@@H]12.[Na+]
[1]
  EC50: 0.65 µM
Bile acid receptor
  EC50: 11.5 µM
[2]
  CMC: 5.9 mM
[3]; [5]
  logP: 1.6
[4]
  solubility: 120 µM
Albumin
  Activity: 83%
Liver
  Drug metabolism: Active

## CC[C@H]1[C@@H](O)[C@@H]2[C@H](C[C@H](O)[C@]3(C)[C@@H]([C@H](C)C[C@H](C)C(=O)O)CC[C@@H]23)[C@@]2(C)CC[C@@H](O)C[C@@H]12
[2]
  CMC: 2 mM
[3]; [5]
  logP: 1.4
Albumin
  Activity: 62%

## C[C@H](CCC(=O)[O-])[C@H]1[C@H](O)C[C@H]2[C@@H]3[C@H](O)C[C@@H]4C[C@H](O)CC[C@]4(C)[C@H]3CC[C@]12C.[Na+] [AVICHOLIC ACID SODIUM SALT]
[1]
  EC50: 160 µM
Bile acid receptor
  EC50: > 100 µM
[2]
  CMC: 10 mM
[3]; [5]
  logP: 1.1
[4]
  solubility: 188 µM
Albumin
  Activity: 58%

## C[C@H](CCC(=O)O)[C@H]1CC[C@H]2[C@@H]3[C@H](O)C[C@@H]4C[C@H](O)CC[C@]4(C)[C@H]3CC[C@]12C [CHENODIOL]
[2]
  CMC: 3 mM
[3]; octanol/water
  logP: 2.2
Albumin
  Activity: 93%

## C[C@H](CCC(=O)O)[C@H]1CC[C@H]2[C@@H]3[C@H](O)C[C@@H]4C[C@H](O)CC[C@]4(C)[C@H]3C[C@H](O)[C@]12C [CHOLIC ACID]
[2]
  CMC: 9.2 mM
Albumin
  Activity: 50%
